Results taken from the supplement of paper PMC8671470.

Legend:
Conditions in all cases: 72 h
[1] = system: myeloid leukemia patient primary cells Pat.9; experiment: cell viability (% survival relative to DMSO control); higher = less cytotoxic
Method in brief: (§1)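 Seventy compounds were pre-printed on 384-well plates at five tenfold concentrations between 1 and 10,000 nM, in duplicate. Thawed mononuclear cells purified by Ficoll from AML or CML patients were added at 10,000 cells/well in RPMI 1640 with 10% FBS for 72 h. Viability by CellTiter-Glo was normalised to DMSO and 10 μM proteasome-inhibitor wells. Where stated, area under the curve was taken from log-logistic fits made with the drc and PharmacoGx R packages, each fit having four parameters.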

[2] = system: myeloid leukemia patient primary cells Pat.10; experiment: as above
Method in brief: as §1

[3] = system: myeloid leukemia patient primary cells Pat.3; experiment: as above
Method in brief: as §1

[4] = system: myeloid leukemia patient primary cells Pat.1; experiment: as above
Method in brief: as §1

[5] = system: myeloid leukemia patient primary cells Pat.11; experiment: as above
Method in brief: as §1

[6] = system: myeloid leukemia patient primary cells Pat.13; experiment: as above
Method in brief: as §1

[7] = system: myeloid leukemia patient primary cells Pat.12; experiment: as above
Method in brief: as §1

ML-2 = system: ML-2
Method in brief: (§2)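 Each of fifteen myeloid leukaemia cell lines was seeded in RPMI 1640 at a density titrated to its linear growth range. The cells were incubated for 72 h at 37 °C and 5% CO2 with compounds at five tenfold doses from 1 to 10,000 nM, in duplicate. After ATP luminescence was normalised to vehicle and to a positive control at 10 µM, four-parameter log-logistic curves were fitted. These curves gave the IC50.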

MOLM-13 = system: MOLM-13
Method in brief: as §2

THP-1 = system: THP-1
Method in brief: as §2

HL-60 = system: HL-60
Method in brief: as §2

KU-812 = system: KU-812
Method in brief: as §2

K-562 = system: K-562
Method in brief: as §2

BV-173 = system: BV-173
Method in brief: as §2

KCL-22 = system: KCL-22
Method in brief: as §2

KG-1 = system: KG-1
Method in brief: as §2

SHI-1 = system: SHI-1
Method in brief: as §2

LAMA-84 = system: LAMA-84
Method in brief: as §2

HEL = system: HEL
Method in brief: as §2

Mono-Mac-6 = system: Mono-Mac-6
Method in brief: as §2

MV4-11 = system: MV4-11
Method in brief: as §2

[8] = system: myeloid leukemia patient primary cells Pat.9; experiment: area under dose-response curve (viability, 1 nM-10 uM) (fraction (0-1)); higher = more sensitive
Method in brief: as §1

[9] = system: myeloid leukemia patient primary cells Pat.10; experiment: as above
Method in brief: as §1

[10] = system: myeloid leukemia patient primary cells Pat.6; experiment: as above
Method in brief: as §1

[11] = system: myeloid leukemia patient primary cells Pat.14; experiment: as above
Method in brief: as §1

[12] = system: myeloid leukemia patient primary cells Pat.3; experiment: as above
Method in brief: as §1

[13] = system: myeloid leukemia patient primary cells Pat.4; experiment: as above
Method in brief: as §1

[14] = system: myeloid leukemia patient primary cells Pat.1; experiment: as above
Method in brief: as §1

[15] = system: myeloid leukemia patient primary cells Pat.8; experiment: as above
Method in brief: as §1

[16] = system: myeloid leukemia patient primary cells Pat.11; experiment: as above
Method in brief: as §1

[17] = system: myeloid leukemia patient primary cells Pat.7; experiment: as above
Method in brief: as §1

[18] = system: myeloid leukemia patient primary cells Pat.2; experiment: as above
Method in brief: as §1

[19] = system: myeloid leukemia patient primary cells Pat.15; experiment: as above
Method in brief: as §1

[20] = system: myeloid leukemia patient primary cells Pat.13; experiment: as above
Method in brief: as §1

[21] = system: myeloid leukemia patient primary cells Pat.5; experiment: as above
Method in brief: as §1

[22] = system: myeloid leukemia patient primary cells Pat.12; experiment: as above
Method in brief: as §1

Oc1ncc(F)c(O)n1 [5-fluorouracil]
cell viability [%]
Conditions | [1] | [2] | [3] | [4] | [5] | [6] | [7]
1 nM | 76.6 | > 100 | 90.4 | 88.5 | 99.9 | 88.8 | 94.2
10 nM | 52.3 | 78.1 | 96.5 | 93.1 | 97.2 | 91.2 | 95.4
100 nM | 92.6 | 65 | 94.5 | 91 | 96.6 | 90 | 87.6
1000 nM | 71.4 | 68.9 | 96.6 | 97 | 96.7 | 72.7 | 95.5
10000 nM | 45.4 | 50.5 | 41.9 | 85.8 | 95.7 | 81 | 91.4

Conditions | IC50 (cell viability) [nM] | area under dose-response curve
BV-173 | 3480 | –
HEL | 2300 | –
HL-60 | 1070 | –
K-562 | > 10000 | –
KCL-22 | 2680 | –
KG-1 | 4310 | –
KU-812 | > 10000 | –
LAMA-84 | 6310 | –
ML-2 | 2300 | –
MOLM-13 | 353 | –
MV4-11 | 435 | –
Mono-Mac-6 | 711 | –
SHI-1 | 2690 | –
THP-1 | > 10000 | –
[8] | – | 0.0717
[9] | – | 0.0668
[10] | – | < 0.0301
[11] | – | < 0.0301
[12] | – | 0.0441
[13] | – | 0.0407
[14] | – | < 0.0301
[15] | – | < 0.0301
[16] | – | < 0.0301
[17] | – | 0.0322
[18] | – | < 0.0301
[19] | – | < 0.0301
[20] | – | < 0.0301
[21] | – | 0.188
[22] | – | < 0.0301

O=C(/C=C/c1cccnc1)NCCCCC1CCN(C(=O)c2ccccc2)CC1 [Daporinad]
cell viability [%]
Conditions | [1] | [2] | [3] | [4] | [5] | [6] | [7]
1 nM | 0.773 | 28.5 | 3.7 | 98.2 | 94.7 | 95 | 91.5
10 nM | < 0 | 2.87 | 2.72 | 64.2 | 10.9 | 34.4 | 32.2
100 nM | 0.492 | < 0 | 2.93 | 20.9 | 1.05 | 9.16 | 8.2
1000 nM | 0.773 | 2.87 | 3.29 | 16.9 | 2.36 | 3.22 | 5.73
10000 nM | 0.773 | < 0 | 2.8 | 11 | 0.862 | 7.15 | 3.19

Conditions | IC50 (cell viability) [nM] | area under dose-response curve
BV-173 | < 1 | –
HEL | 2.33 | –
HL-60 | 1.47 | –
K-562 | 3.78 | –
KCL-22 | 3.31 | –
KG-1 | 3.63 | –
KU-812 | 3.34 | –
LAMA-84 | 2.18 | –
ML-2 | 1.39 | –
MOLM-13 | 3.69 | –
MV4-11 | < 1 | –
Mono-Mac-6 | 20.6 | –
SHI-1 | > 10000 | –
THP-1 | > 10000 | –
[8] | – | 0.995
[9] | – | 0.956
[10] | – | 0.609
[11] | – | 0.977
[12] | – | 0.995
[13] | – | 0.947
[14] | – | 0.616
[15] | – | 0.823
[16] | – | 0.849
[17] | – | 0.995
[18] | – | 0.754
[19] | – | 0.792
[20] | – | 0.754
[21] | – | 0.995
[22] | – | 0.772

O=c1[nH]c(=O)n([C@H]2C[C@H](O)[C@@H](CO)O2)cc1I [Idoxuridine]
cell viability [%]
Conditions | [1] | [2] | [3] | [4] | [5] | [6] | [7]
1 nM | 34.8 | 76.4 | 19.5 | 84.3 | > 100 | 91 | 95.6
10 nM | 59.9 | 55.7 | 71.8 | 81.5 | 95.9 | 84.4 | 95.6
100 nM | 68.1 | 61.4 | 81.6 | 95 | 96.4 | 83.4 | 99
1000 nM | 35.5 | 41.6 | 83.6 | 74.3 | 90.7 | 74.8 | 87.3
10000 nM | 70.3 | > 100 | 95.1 | 95.4 | > 100 | 91.9 | 99.1

Conditions | IC50 (cell viability) [nM] | area under dose-response curve
BV-173 | 464 | –
HEL | 1470 | –
HL-60 | > 10000 | –
K-562 | 4340 | –
KCL-22 | 755 | –
KG-1 | > 10000 | –
KU-812 | > 10000 | –
LAMA-84 | 5590 | –
ML-2 | 2510 | –
MOLM-13 | 4760 | –
MV4-11 | 1630 | –
Mono-Mac-6 | 6630 | –
SHI-1 | > 10000 | –
THP-1 | > 10000 | –
[8] | – | < 0.0301
[9] | – | < 0.0301
[10] | – | < 0.0301
[11] | – | < 0.0301
[12] | – | < 0.0301
[13] | – | < 0.0301
[14] | – | < 0.0301
[15] | – | < 0.0301
[16] | – | < 0.0301
[17] | – | < 0.0301
[18] | – | < 0.0301
[19] | – | < 0.0301
[20] | – | < 0.0301
[21] | – | < 0.0301
[22] | – | < 0.0301
